Results taken from patent US6265603A, “Inhibitors of isoprenyl transferase” (Eisai Co., Ltd., priority 1999, dated 2001).

Assays:
[1] = system: H-ras (61 L) transformed NIH3T3 fibroblasts; assay: Inhibition of tumor growth of H-ras (61 L) transformed NIH3T3 xenograft in athymic nude mice; assay type: in vivo; conditions: 100, 50 and 25 mg/kg i.v. daily for 5 days; measured days 7, 10, 14
Description: H-ras (61 L) transformed NIH3T3 fibroblasts were grown in Dulbecco's modified Eagle's medium supplemented with 10% heat-inactivated calf serum. 100 U/mL penicillin, 100 μg/mL streptomycin, and 0.75 mg/mL G418 (GIBCO) and incubated at 37° C. in 5% CO2. Cells were harvested from exponential-phase cultures with trypsin-EDTA, centrifuged at 160×g for 5 min, washed once with 10 mL cold Hank's balanced salt solution (HBSS, GIBCO), and resuspended at a concentration of 1×10^6 cells/mL.
Five week old female athymic nude mice were obtained from SLC (3371-8, Kotoummachi, Hamamatsu-shi, Shizuoka 431-11, Japan) and maintained under pathogen-free conditions. The mice were subcutaneously injected in the lateral flank with 1×10^5 H-ras transformed cells/mouse.
Inhibitor compound 1 was suspended in 5% glucose in a total injection volume of 0.2 mL. Three dosage concentrations were prepared, 100, 50 and 25 mg/kg. Compound 1 was intravenously injected daily in the tail vein for 5 consecutive days, starting the day after the implantation (day 0). The control group was injected with vehicle only. Body weight and tumor dimensions were measured at days 7, 10, and 14. Tumor volume was estimated by the following calculation: tumor volume=(0.5)(length×width×width). At day 14, each mouse was euthanized with CO2 (g), and each tumor was excised and weighed. […]

[2] = system: H-ras; assay: Inhibition of H-ras prenylation/processing in whole cells (H-ras (61 L) transformed NIH3T3 fibroblasts, Western blot); assay type: cell-based; conditions: for IC50: Mus musculus; for IC50 / H-ras processing, % inhibition @ 50: H-ras (61 L) transformed NIH3T3 fibroblasts, 24 h, 50 μM lovastatin as 100% reference; for H-ras processing, % inhibition @ 50: @ 50 [μM]
Description: The ability of compounds of the invention to inhibit H-ras farnesylation was determined. H-ras (61 L) transformed NIH3T3 fibroblasts were generously provided by C. Der, Univ. N. Carolina. These fibroblasts were treated for 24 h with 50 μM lovastatin or vehicle control or the indicated concentrations of inhibitor. Lovastatin is an HMG-CoA reductase inhibitor. HMG-CoA reductase is an essential enzyme in the cellular synthesis of the prenyl groups with which ras proteins are modified. The cells were lysed in 1% NP-40, 5 mM Tris-HCl (pH 8.0), 5 mM EDTA, 0.1 mM N-tosyl-L-phenylalanine chloromethyl ketone, 0.1 mM N-tosyl-L-lysine chloromethyl ketone, and 1 mM phenylmethylsulfonyl fluoride. The lysate was centrifuged (15000×g, 5 min.) and the supernatant was used as a cell extract. Total protein was separated by SDS-PAGE in 15% acrylamide gel. Processed ras can be differentiated from non-processed ras by its mobility in polyacrylamide gels. After transfer to IMMOBILON P™ membrane (Millipore), the blots were probed with LA069 mouse monoclonal antibody to H-ras (Quality Biotech). All Western blots were developed using ECL chemiluminescent reagents (Amersham) and the relative amounts of farnesylated and non-farnesylated ras were quantitated using the inhibition obtained by 50 μM lovastatin as 100% reference.
Sub-micromolar concentrations are sufficient to inhibit farnesylation of ras proteins in whole cells.

[3] = biological target: GGTase I (Homo sapiens, UniProt P49354+P53609); assay: In vitro inhibition of GGTase I-mediated prenylation (H-ras (61 L, CAIL), [3H] geranylgeranyl diphosphate); assay type: biochemical; conditions: 5 μM recombinant H-ras (61 L, CAIL), 1 mM [3H] geranylgeranyl diphosphate
Description: (§1) The ability of the disclosed inhibitor compounds to inhibit FTase was measured according to a published prenylation assay (Moores et al., J. Biol Chem. 266:14603 (1991)). Recombinant FTase with 3 μM recombinant H-ras and 440 nM [^3 H] farnesylpyrophosphate were used were used. The inhibitors were diluted in assay buffer, and each assay mixture was incubated 15 min. at 37° C. Where inhibition of GGTase I was measured, GGTase I with 5 μM recombinant, H-ras (61 L, CAIL) and 1 mM [^3 H] geranylgeranyl diphosphate were used.
(§2) Nanomolar concentrations of the indicated compounds were sufficient to inhibit farnesylation of ras proteins in vitro. For screening candidate compounds useful for the treatment of ras-associated tumors, the FTase assay is preferred. […] Substitutions which confer GGTase I specificity as taught herein also produced potent inhibitors of GGTase I.

[4] = biological target: FTase (Homo sapiens, UniProt P49354+P49356); assay: In vitro inhibition of FTase-mediated prenylation (recombinant FTase, recombinant H-ras, [3H] farnesylpyrophosphate); assay type: biochemical; conditions: 15 min, 37° C.; 3 μM recombinant H-ras, 440 nM [3H] farnesylpyrophosphate
Description: as §1, §2

COC(=O)[C@H](CCSC)NC(=O)c1cc(OCC[C@@H](N)CS)ccc1C(C)C [Compound 1]
inhibition of tumor growth / tumor volume (FIG. 1) [1]: inhibition of tumor growth | IC50 [2]: 39 nM | potency within the series (in words) ([2]; statement in Formulations section, test not specified): the most potent compound of the series

CSCC[C@H](NC(=O)c1ccccc1OC[C@@H](/C=C/[C@@H](N)CS)C(C)C)C(=O)O [Compound 2]
IC50 [3]: 1900 nM | IC50 [4]: 45 nM

CSCC[C@H](NC(=O)c1cc2ccccc2cc1OC[C@@H](/C=C/[C@@H](N)CS)C(C)C)C(=O)O [Compound 3]
IC50 [3]: 1700 nM | IC50 [4]: 500 nM

CSCC[C@H](NC(=O)c1cccc(OC[C@@H](/C=C/[C@@H](N)CS)C(C)C)c1)C(=O)O [Compound 4]
IC50 [3]: 1900 nM | IC50 [4]: 30 nM

CSCCC(NC(=O)c1ccc(OC[C@@H](/C=C/[C@@H](N)CS)C(C)C)cc1)C(=O)O (stereo partly drawn) [Compound 5]
IC50 [3]: 40000 nM | IC50 [4]: 6300 nM

CSCC[C@H](NC(=O)c1cc2ccccc2cc1OC/C=C/[C@@H](N)CS)C(=O)O [Compound 6]
IC50 [3]: 4200 nM | IC50 [4]: 1300 nM

CSCC[C@H](NC(=O)c1cccc(OC/C=C/[C@@H](N)CS)c1)C(=O)O [Compound 7]
IC50 [3]: 3000 nM | IC50 [4]: 93 nM

CSCC[C@H](NC(=O)c1ccc(OC/C=C/[C@@H](N)CS)cc1)C(=O)O [Compound 8]
IC50 [3]: > 100000 nM | IC50 [4]: 890 nM

CSCC[C@H](NC(=O)c1cc(OC[C@@H](/C=C/[C@@H](N)CS)C(C)C)ccc1C(C)C)C(=O)O [Compound 9]
IC50 [3]: 3800 nM | IC50 [4]: 22 nM

CSCC[C@H](NC(=O)c1cc(OCC[C@@H](N)CS)ccc1C(C)C)C(=O)O [Compound 11]
IC50 [3]: 390 nM | IC50 [4]: 21 nM

CSCC[C@H](NC(=O)c1cc(OCC[C@@H](N)CS)ccc1-c1ccccc1)C(=O)O [Compound 12]
IC50 [3]: 38 nM | IC50 [4]: 4 nM

CSCC[C@H](NC(=O)c1cc(OC[C@@H](N)CS)ccc1-c1ccccc1)C(=O)O [Compound 14]
IC50 [3]: 130 nM | IC50 [4]: 15 nM

COC(=O)C(CCSC)NC(=O)c1ccccc1OC[C@@H](/C=C/[C@@H](N)CS)C(C)C (stereo partly drawn) [Compound 15]
IC50 [2]: 4100 nM

COC(=O)[C@H](CCSC)NC(=O)c1cccc(OC[C@@H](/C=C/[C@@H](N)CS)C(C)C)c1 [Compound 17]
IC50 [2]: 3300 nM

COC(=O)[C@H](CCSC)NC(=O)c1ccc(OC[C@@H](/C=C/[C@@H](N)CS)C(C)C)cc1 [Compound 18]
IC50 [2]: > 50000 nM

COC(=O)[C@H](CCSC)NC(=O)c1cc2ccccc2cc1OC/C=C/[C@@H](N)CS [Compound 19]
H-ras processing, % inhibition @ 50 [2]: 46%

COC(=O)C(CCSC)NC(=O)c1cccc(OC/C=C/[C@@H](N)CS)c1 (stereo partly drawn) [Compound 20]
H-ras processing, % inhibition @ 50 [2]: 38%

COC(=O)[C@H](CCSC)NC(=O)c1ccc(OC/C=C/[C@@H](N)CS)cc1 [Compound 21]
IC50 [2]: > 50000 nM

COC(=O)[C@H](CCSC)NC(=O)c1cc(OC[C@@H](/C=C/[C@@H](N)CS)C(C)C)ccc1C(C)C [Compound 22]
IC50 [2]: 122 nM

COC(=O)[C@H](CCSC)NC(=O)c1cc(OC[C@@H](/C=C/[C@@H](N)CS)C(C)C)ccc1-c1ccccc1 [Compound 23]
IC50 [2]: 31000 nM

COC(=O)[C@H](CCSC)NC(=O)c1cc(OCC[C@@H](N)CS)ccc1-c1ccccc1 [Compound 24]
IC50 [2]: 298 nM

COC(=O)[C@H](CCSC)NC(=O)c1cc(OC[C@@H](N)CS)ccc1C(C)C [Compound 25]
IC50 [2]: 3100 nM

COC(=O)[C@H](CCSC)NC(=O)c1cc(OC[C@@H](N)CS)ccc1-c1ccccc1 [Compound 26]
IC50 [2]: 3200 nM

COC(=O)[C@H](CCSC)NC(=O)c1cc(COC[C@@H](N)CS)ccc1C(C)C [Compound 27]
IC50 [2]: 49 nM

COC(=O)[C@H](CCSC)N(C)Cc1cc(OCC[C@@H](N)CS)ccc1C(C)C [Compound 28]
H-ras processing, % inhibition @ 50 [2]: 42%

COC(=O)[C@H](CCSC)NC(=O)c1cc(OCC[C@@H](C)CS)ccc1C(C)C [Compound 29]
IC50 [2]: > 50000 nM

CSCC[C@H](NC(=O)c1cc(COC[C@@H](N)CS)ccc1C(C)C)C(=O)O [Compound 30]
IC50 [3]: 930 nM | IC50 [4]: 15 nM

CSCC[C@@H](C(=O)O)N(C)Cc1cc(OCC[C@@H](N)CS)ccc1C(C)C [Compound 31]
IC50 [3]: 8900 nM | IC50 [4]: 350 nM

CSCC[C@H](NC(=O)c1cc(OCC[C@@H](C)CS)ccc1C(C)C)C(=O)O [Compound 32]
IC50 [3]: 100000 nM | IC50 [4]: 470 nM
